# In publication PMC4904262 (ACS Medicinal Chemistry Letters, 2016):
# Key:
# Conditions in all cases: 1 µM, ATP at Km
# ABL = ABL (Homo sapiens, UniProt P00519)
# ALK4 = ALK4 (Homo sapiens, UniProt P36896)
# ARK5 = ARK5 (Homo sapiens, UniProt O60285)
# BRK = BRK (Homo sapiens, UniProt Q13882)
# BRSK1 = BRSK1 (Homo sapiens, UniProt Q8TDC3)
# BRSK2 = BRSK2 (Homo sapiens, UniProt Q8IWQ3)
# CAMKI = CAMKI (Homo sapiens, UniProt Q14012)
# CDK5/P25 = CDK5/P25 (Homo sapiens, UniProt Q00535)
# DAPK2 = DAPK2 (Homo sapiens, UniProt Q9UIK4)
# DAPK2, sequence (Q9UIK4 whole entry): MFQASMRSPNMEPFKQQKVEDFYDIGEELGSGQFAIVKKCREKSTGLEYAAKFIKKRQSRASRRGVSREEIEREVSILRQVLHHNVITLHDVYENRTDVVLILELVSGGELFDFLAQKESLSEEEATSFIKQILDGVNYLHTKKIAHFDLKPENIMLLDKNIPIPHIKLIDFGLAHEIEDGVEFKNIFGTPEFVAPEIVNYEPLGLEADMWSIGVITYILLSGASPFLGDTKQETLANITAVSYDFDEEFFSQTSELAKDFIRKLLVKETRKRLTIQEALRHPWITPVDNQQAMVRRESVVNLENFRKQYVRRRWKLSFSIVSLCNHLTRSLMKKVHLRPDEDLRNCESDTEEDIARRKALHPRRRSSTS
# DMPK = DMPK (Homo sapiens, UniProt Q09013)
# EPHA1 = EPHA1 (Homo sapiens, UniProt P21709)
# EPHB1 = EPHB1 (Homo sapiens, UniProt P54762)
# FER = FER (Homo sapiens, UniProt P16591)
# FLT3 = FLT3 (Homo sapiens, UniProt P36888)
# FYN = FYN (Homo sapiens, UniProt P06241)
# HIPK3 = HIPK3 (Homo sapiens, UniProt Q9H422)
# IRAK1 = IRAK1 (Homo sapiens, UniProt P51617)
# ITK = ITK (Homo sapiens, UniProt Q08881)
# LKB1 = LKB1 (Homo sapiens, UniProt Q15831)
# LOK = LOK (Homo sapiens, UniProt O94804)
# LOK, sequence (O94804 whole entry): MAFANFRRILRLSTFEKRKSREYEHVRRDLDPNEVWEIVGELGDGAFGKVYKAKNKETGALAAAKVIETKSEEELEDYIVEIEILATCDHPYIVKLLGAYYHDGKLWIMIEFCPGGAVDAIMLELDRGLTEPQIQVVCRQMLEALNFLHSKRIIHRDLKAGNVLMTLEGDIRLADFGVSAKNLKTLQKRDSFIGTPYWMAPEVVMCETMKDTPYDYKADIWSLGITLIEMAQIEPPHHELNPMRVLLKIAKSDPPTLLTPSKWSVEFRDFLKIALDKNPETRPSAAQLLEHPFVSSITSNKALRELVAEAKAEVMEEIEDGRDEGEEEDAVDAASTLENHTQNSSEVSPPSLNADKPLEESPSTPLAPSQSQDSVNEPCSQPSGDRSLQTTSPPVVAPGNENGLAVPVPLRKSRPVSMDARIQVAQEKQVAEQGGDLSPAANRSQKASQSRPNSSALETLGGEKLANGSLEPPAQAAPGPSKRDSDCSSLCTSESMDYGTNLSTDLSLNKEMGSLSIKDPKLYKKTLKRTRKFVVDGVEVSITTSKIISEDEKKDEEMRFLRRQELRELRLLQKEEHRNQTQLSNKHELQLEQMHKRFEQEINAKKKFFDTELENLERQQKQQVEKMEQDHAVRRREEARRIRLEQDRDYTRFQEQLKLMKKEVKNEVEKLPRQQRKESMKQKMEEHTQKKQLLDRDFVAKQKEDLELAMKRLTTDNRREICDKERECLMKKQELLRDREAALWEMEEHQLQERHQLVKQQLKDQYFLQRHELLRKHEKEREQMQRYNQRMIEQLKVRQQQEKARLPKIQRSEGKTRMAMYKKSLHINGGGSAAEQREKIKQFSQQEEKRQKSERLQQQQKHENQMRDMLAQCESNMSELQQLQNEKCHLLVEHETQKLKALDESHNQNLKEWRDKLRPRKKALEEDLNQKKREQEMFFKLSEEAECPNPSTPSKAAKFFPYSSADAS
# MAPK2 = MAPK2 (Homo sapiens, UniProt P28482)
# MKK6 = MKK6 (Homo sapiens, UniProt P52564)
# MSK1 = MSK1 (Homo sapiens, UniProt O75582)
# MST2 = MST2 (Homo sapiens, UniProt Q13188)
# MST2, sequence (Q13188 whole entry): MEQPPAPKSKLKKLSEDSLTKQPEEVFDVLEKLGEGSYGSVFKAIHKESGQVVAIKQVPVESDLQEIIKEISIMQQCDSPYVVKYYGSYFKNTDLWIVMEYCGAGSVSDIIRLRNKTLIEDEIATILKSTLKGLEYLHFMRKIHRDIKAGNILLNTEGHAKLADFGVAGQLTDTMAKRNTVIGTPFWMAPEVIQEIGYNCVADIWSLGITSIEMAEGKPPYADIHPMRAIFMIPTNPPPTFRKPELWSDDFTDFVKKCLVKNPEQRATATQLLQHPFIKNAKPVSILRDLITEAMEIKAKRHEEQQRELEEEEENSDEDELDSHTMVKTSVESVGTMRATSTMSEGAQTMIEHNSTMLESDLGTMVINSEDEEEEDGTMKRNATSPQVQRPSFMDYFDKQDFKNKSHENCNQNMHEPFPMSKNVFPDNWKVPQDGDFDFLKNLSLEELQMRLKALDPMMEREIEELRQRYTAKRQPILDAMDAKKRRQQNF
# NEK3 = NEK3 (Homo sapiens, UniProt P51956)
# NEK11 = NEK11 (Homo sapiens, UniProt Q8NG66)
# PAK2 = PAK2 (Homo sapiens, UniProt Q13177)
# PAK2, sequence (Q13177 whole entry): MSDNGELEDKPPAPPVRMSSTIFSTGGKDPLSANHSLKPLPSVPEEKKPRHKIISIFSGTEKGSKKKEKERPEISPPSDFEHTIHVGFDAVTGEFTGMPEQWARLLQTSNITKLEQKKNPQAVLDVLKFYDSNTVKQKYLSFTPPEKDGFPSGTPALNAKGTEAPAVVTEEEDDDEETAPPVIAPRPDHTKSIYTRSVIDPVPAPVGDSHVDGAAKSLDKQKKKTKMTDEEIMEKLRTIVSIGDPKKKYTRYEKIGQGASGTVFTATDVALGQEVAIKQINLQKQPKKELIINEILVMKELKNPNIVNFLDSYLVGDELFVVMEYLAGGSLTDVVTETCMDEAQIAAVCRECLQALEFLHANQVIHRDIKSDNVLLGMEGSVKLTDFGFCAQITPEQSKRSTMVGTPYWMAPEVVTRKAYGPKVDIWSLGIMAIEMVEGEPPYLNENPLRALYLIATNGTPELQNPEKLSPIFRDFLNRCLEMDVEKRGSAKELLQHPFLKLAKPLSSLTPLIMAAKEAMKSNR
# PDGFRBETA = PDGFRBETA (Homo sapiens, UniProt P09619)
# PDK1 = PDK1 (Homo sapiens, UniProt O15530)
# PIM-1 = PIM-1 (Homo sapiens, UniProt P11309)
# PKCIOTA = PKCIOTA (Homo sapiens, UniProt P41743)
# PKCIOTA, sequence (P41743 whole entry): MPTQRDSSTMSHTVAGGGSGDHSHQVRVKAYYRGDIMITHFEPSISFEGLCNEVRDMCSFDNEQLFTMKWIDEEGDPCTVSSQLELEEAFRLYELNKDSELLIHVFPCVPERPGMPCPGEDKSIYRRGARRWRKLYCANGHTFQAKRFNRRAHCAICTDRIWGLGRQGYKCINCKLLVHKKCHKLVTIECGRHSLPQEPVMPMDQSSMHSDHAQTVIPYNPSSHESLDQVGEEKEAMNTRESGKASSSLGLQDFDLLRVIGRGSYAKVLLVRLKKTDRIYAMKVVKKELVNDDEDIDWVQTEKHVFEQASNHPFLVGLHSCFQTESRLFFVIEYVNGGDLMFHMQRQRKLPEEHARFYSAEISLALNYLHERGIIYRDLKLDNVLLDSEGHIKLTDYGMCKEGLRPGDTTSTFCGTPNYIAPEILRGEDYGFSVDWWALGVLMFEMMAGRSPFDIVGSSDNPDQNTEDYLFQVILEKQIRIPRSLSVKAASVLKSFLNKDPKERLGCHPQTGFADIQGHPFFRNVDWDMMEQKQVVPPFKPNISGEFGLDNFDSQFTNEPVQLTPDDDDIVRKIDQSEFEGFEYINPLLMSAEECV
# PKCMU = PKCMU (Homo sapiens, UniProt Q15139)
# PKCMU, sequence (Q15139 whole entry): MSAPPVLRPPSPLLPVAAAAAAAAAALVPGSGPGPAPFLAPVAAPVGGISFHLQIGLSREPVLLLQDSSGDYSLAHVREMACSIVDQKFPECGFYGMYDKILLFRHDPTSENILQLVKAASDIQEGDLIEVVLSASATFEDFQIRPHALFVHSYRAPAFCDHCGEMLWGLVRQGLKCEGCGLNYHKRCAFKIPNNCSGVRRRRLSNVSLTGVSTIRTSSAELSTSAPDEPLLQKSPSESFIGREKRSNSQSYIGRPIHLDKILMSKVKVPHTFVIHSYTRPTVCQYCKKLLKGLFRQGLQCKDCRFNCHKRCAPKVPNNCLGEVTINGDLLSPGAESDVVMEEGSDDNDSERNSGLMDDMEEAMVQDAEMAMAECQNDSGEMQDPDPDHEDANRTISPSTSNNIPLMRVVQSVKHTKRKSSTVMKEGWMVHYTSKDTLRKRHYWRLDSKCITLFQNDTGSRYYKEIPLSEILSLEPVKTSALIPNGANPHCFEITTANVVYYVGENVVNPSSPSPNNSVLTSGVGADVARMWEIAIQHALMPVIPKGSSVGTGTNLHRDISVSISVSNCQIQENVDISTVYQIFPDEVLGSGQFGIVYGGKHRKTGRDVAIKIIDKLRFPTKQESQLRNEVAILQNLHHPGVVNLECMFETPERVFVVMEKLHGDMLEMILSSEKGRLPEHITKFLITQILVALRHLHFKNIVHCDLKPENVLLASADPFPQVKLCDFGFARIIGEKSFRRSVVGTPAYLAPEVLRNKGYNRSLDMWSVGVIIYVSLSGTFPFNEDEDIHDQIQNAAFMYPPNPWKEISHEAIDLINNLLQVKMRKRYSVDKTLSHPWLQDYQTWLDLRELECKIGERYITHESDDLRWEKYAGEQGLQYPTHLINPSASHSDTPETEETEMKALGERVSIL
# PLK3 = PLK3 (Homo sapiens, UniProt Q9H4B4)
# PRAK = PRAK (Homo sapiens, UniProt Q8IW41)
# PRK2 = PRK2 (Homo sapiens, UniProt Q16513)
# SAPK3 = SAPK3 (Homo sapiens, UniProt P53778)
# SRPK1 = SRPK1 (Homo sapiens, UniProt Q96SB4)
# SYK = SYK (Homo sapiens, UniProt P43405)
# ZAP-70 = ZAP-70 (Homo sapiens, UniProt P43403)
# CK1GAMMA3 = CK1GAMMA3 (Homo sapiens, UniProt Q9Y6M4)
# RSK4 = RSK4 (Homo sapiens, UniProt Q9UK32)
# GRK7 = GRK7 (Homo sapiens, UniProt Q8WTQ7)
# MTOR/FKBP12 = MTOR/FKBP12 (Homo sapiens, UniProt P42345)
# MELK = MELK (Homo sapiens, UniProt Q14680)
# PRKAA2 = PRKAA2 (Homo sapiens, UniProt P54646)
# ABL, sequence (P00519 whole entry): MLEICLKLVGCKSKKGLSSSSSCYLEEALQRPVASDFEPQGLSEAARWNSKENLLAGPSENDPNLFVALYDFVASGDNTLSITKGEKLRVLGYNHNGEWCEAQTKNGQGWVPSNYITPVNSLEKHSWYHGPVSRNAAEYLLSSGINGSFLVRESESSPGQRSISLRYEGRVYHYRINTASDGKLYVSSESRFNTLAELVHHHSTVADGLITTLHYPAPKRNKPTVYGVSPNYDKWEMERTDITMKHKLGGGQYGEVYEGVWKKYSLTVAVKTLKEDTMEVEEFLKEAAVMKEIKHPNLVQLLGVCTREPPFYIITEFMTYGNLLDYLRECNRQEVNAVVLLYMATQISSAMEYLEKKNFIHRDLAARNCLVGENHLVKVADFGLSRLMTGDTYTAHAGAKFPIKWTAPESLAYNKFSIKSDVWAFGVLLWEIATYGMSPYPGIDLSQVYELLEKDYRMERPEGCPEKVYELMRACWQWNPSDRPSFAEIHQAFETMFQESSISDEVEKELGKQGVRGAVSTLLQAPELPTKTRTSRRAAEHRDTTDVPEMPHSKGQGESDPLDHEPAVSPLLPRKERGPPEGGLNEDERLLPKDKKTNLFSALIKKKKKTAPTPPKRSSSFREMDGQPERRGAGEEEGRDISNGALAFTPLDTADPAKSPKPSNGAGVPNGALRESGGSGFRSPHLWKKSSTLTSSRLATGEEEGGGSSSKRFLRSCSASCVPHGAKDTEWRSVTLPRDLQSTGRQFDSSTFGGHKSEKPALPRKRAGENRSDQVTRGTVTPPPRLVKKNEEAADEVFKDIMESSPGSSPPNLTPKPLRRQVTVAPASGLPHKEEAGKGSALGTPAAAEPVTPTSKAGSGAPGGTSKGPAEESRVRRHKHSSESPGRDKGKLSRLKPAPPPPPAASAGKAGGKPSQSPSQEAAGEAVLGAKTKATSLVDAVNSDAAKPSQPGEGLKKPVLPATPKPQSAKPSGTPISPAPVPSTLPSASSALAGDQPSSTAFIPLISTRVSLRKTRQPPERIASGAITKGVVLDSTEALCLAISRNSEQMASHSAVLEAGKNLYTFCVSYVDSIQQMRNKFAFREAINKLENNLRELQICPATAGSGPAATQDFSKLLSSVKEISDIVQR
compound,measurement,setting,value
COC1CN(C(=O)c2ccc3c(N)ncc(-c4ccc(-c5cnn(C)c5)cc4)c3n2)C1 [Compound 51],percentage effect,ABL,20%
same,percentage effect,ALK4,9%
same,percentage effect,ARK5,2%
same,percentage effect,BRK,10%
same,percentage effect,BRSK1,6%
same,percentage effect,BRSK2,1%
same,percentage effect,CAMKI,-10%
same,percentage effect,CDK5/P25,3%
same,percentage effect,DAPK2,5%
same,percentage effect,DMPK,7%
same,percentage effect,EPHA1,7%
same,percentage effect,EPHB1,13%
same,percentage effect,FER,-18%
same,percentage effect,FLT3,0%
same,percentage effect,FYN,1%
same,percentage effect,HIPK3,6%
same,percentage effect,IRAK1,8%
same,percentage effect,ITK,-6%
same,percentage effect,LKB1,-5%
same,percentage effect,LOK,3%
same,percentage effect,MAPK2,6%
same,percentage effect,MKK6,-4%
same,percentage effect,MSK1,-2%
same,percentage effect,MST2,-5%
same,percentage effect,NEK3,-14%
same,percentage effect,NEK11,3%
same,percentage effect,PAK2,-17%
same,percentage effect,PDGFRBETA,2%
same,percentage effect,PDK1,-8%
same,percentage effect,PIM-1,-10%
same,percentage effect,PKCIOTA,-16%
same,percentage effect,PKCMU,-3%
same,percentage effect,PLK3,-9%
same,percentage effect,PRAK,15%
same,percentage effect,PRK2,-3%
same,percentage effect,SAPK3,-11%
same,percentage effect,SRPK1,3%
same,percentage effect,SYK,-10%
same,percentage effect,ZAP-70,-3%
same,percentage effect,CK1GAMMA3,-18%
same,percentage effect,RSK4,9%
same,percentage effect,GRK7,3%
same,percentage effect,MTOR/FKBP12,-4%
same,percentage effect,MELK,-10%
same,percentage effect,PRKAA2,-1%
COC1CN(C(=O)c2ccc3c(N)ncc(-c4ccc(-c5cnn(C)c5)cc4)c3c2)C1 [Compound 59],percentage effect,ABL,-10%
same,percentage effect,ALK4,8%
same,percentage effect,ARK5,-14%
same,percentage effect,BRK,5%
same,percentage effect,BRSK1,2%
same,percentage effect,BRSK2,5%
same,percentage effect,CAMKI,-5%
same,percentage effect,CDK5/P25,11%
same,percentage effect,DAPK2,12%
same,percentage effect,DMPK,-11%
same,percentage effect,EPHA1,4%
same,percentage effect,EPHB1,-44%
same,percentage effect,FER,3%
same,percentage effect,FLT3,16%
same,percentage effect,FYN,8%
same,percentage effect,HIPK3,4%
same,percentage effect,IRAK1,14%
same,percentage effect,ITK,2%
same,percentage effect,LKB1,-10%
same,percentage effect,LOK,1%
same,percentage effect,MAPK2,-4%
same,percentage effect,MKK6,-14%
same,percentage effect,MSK1,0%
same,percentage effect,MST2,-14%
same,percentage effect,NEK3,-2%
same,percentage effect,NEK11,-22%
same,percentage effect,PAK2,-18%
same,percentage effect,PDGFRBETA,17%
same,percentage effect,PDK1,-10%
same,percentage effect,PIM-1,-13%
same,percentage effect,PKCIOTA,2%
same,percentage effect,PKCMU,10%
same,percentage effect,PLK3,5%
same,percentage effect,PRAK,-17%
same,percentage effect,PRK2,-11%
same,percentage effect,SAPK3,-11%
same,percentage effect,SRPK1,-24%
same,percentage effect,SYK,-11%
same,percentage effect,ZAP-70,-6%
same,percentage effect,CK1GAMMA3,19%
same,percentage effect,RSK4,13%
same,percentage effect,GRK7,8%
same,percentage effect,MTOR/FKBP12,4%
same,percentage effect,MELK,-8%
same,percentage effect,PRKAA2,2%
